“Also recorded” adds a separate entry of the source. Read-outs that look alike come from different tables or passages of the source.
Tests used:
[1] = tested on: Candida auris AR-0381; assay: EPA MLB SOP MB-35-00 stainless steel carrier disinfection with ILPS (Example 5); assay type: cell-based
[2] = tested on: COVID-19; assay: Nebulized LA outpatient treatment of COVID-19 patients and close contacts (case studies); assay type: in vivo, human
Procedure: After informed consent of the risks and potential benefits, we nebulized 0.56 ml 11 mM LA every 4 hours to treat two COVID-19 patients. The initial treatment of the […] began after two days of symptoms and the […] began treatment after their first day symptoms. Treatment observations of these two cohabiting patients occurred in their home to alter the likely course of clinical deterioration given their co-morbidities.
They were treated with 0.56 ml 11 mM nebulized LA every 4 hours, around the clock for 7 days. Oxygen saturation levels were recorded by the patient using a pulse oximeter. The initial and final evaluation was conducted as a home visit. All other evaluations were conducted by telephone. The treatment timeline starts the day after the initial home visit. • Day 1: they reported a total loss of taste and smell and mild chest pain. They also reported absence of dyspnea early that day and improved cough. Their oxygen saturation measured 98% (up from 94%). • Day 2: they reported intermittent taste and smell through day 4. Their chest pain resolved. They also reported infrequent loose bowel movements which improved and resolved over the following 3 days. They described no dyspnea. Their oxygen saturation measured 97%. • Day 3: they reported a return of mild dyspnea. Their oxygen saturation measured 95%. • Day 4: they reported dyspnea improvement. Their oxygen saturation measured between 95-98%. • Day 5: they reported that their sense of taste and smell was close to normal. They also reported that their cough had resolved and they had minimal dyspnea. Their oxygen saturation measured 97%. • Day 6: no reported symptoms. Their oxygen saturation measured 97%. • Day 7: no reported symptoms. Their oxygen saturation measured 98%.
After informed consent of the risks and potential benefits, we nebulized 0.56 ml 11 mM LA every 4 hours around the clock for 7 days. […] […] initial oxygen saturation measured 96%.
Oxygen saturation levels were recorded by the patient using a pulse oximeter. The initial and final evaluation was conducted as a home visit. All other evaluations were conducted by telephone. The treatment timeline starts the day after the initial home visit. • Day 1: they reported loss of taste and smell and fatigue. Their wheezing had improved. They reported no dyspnea. Oxygen saturation measured 95%. • Day 2: they reported mild wheezing and dyspnea. Their oxygen saturation measured 94%. An additional treatment of an Albuterol nebulizer and Methylprednisolone Dosepak was started for their asthma exacerbation. When starting nebulized Albuterol, this patient inadvertently discontinued the nebulized LA because they misunderstood instructions. This cessation of nebulized LA was not reported to the treating physician until Day 4. • Day 3: they reported improved loss of taste and smell and cough. Dyspnea worsened. Oxygen saturation measured 98% • Day 4: they reported that the loss of taste and smell improved. They also reported mild wheezing and cough. Oxygen saturation measured 95%. The patient reported the Albuterol nebulizer aggravated dyspnea symptoms. Because of their complaint, the Albuterol nebulizer was discontinued. Nebulized LA treatment was started again. • Day 5: they reported no loss of taste and smell. Minimal cough, wheeze, and dyspnea. Oxygen saturation measured 96% • Day 6: no reported symptoms. Oxygen saturation measured 98%. • Day 7: no reported symptoms. Oxygen saturation measured 98%.
Four lab confirmed COVID-19 cases, 2 probable cases, and 2 close contacts of confirmed COVID-19 cases were nebulized 0.56 ml 11 mM LA (Table 2). Treatment with LA was started after patients were assessed by their primary physician. Patients presented at different points in their COVID-19 infection. Onset of treatment ranged from asymptomatic to 9 days into the symptom course. Two close contacts with cases were treated. They were asymptomatic. Two close contacts with COVID-19 cases were also nebulized using 0.56 ml 11 mM LA every 4 hours. […]

[3] = tested on: microbial growth; assay: Reduction in microbial growth; assay type: cell-based; conditions: potassium hexadiene at pH 9
[4] = tested on: viral illnesses such as pharyngitis and rhinorrhea; assay: ILCS spray or wash for the nasopharynx cavity; assay type: in vivo; conditions: 2-50 mM ILCS spray or wash
[5] = Clinical observation on washing with ILPS; assay type: in vivo; conditions: general cosmetic use
[6] = Solubility of ILCS preparations; assay type: physicochemical; conditions: pH 7-10.5
[7] = tested on: Candida auris (AR-0381)
Procedure: (§1) We used EPA protocol MB-35-00 for testing disinfectants against C. auris (US Environmental Protection Agency. 2017, 2020) and C. albicans ATCC 10231, a yeast common in package spoilage of food and cosmetics.
(§2) We tested 5 batches produced with difference sources of isomerized linoleic acid (Test Substances 1-5).
(§3) The EPA test protocol for testing hard surface disinfection of C. auris (AR0381) with antifungal resistance includes an overnight culture of C. auris (AR.0381) shaken at 200 rpm at 30° C. From this culture, 8 mL was harvested by centrifugation, re-suspended in 2-3 mL phosphate-buffered saline (PBS), and mixed with a 3-part soil load including bovine serum albumin (BSA), yeast extract, and mucin. Metal carriers (10 mm) were inoculated (10 μL culture+soil load) and dried in a desiccator under vacuum (˜70 min). The disk surface was coated with the test substance at 0.42 M (50 μL) for up to 10 min. Following incubation, the carriers were transferred to 10 mL neutralization solution (Sabouraud Dextrose Broth [SDB], a common yeast-mold growth media) for subsequent harvesting on membrane filters. The filtered membranes were transferred to Sabouraud Dextrose Emmons Agar (SDEA) plates to culture for 120 hours at 31° C. Controls consisted of PBS (50 μL) applied to inoculated metal disk carriers, subsequently transferred to 10 mL neutralization solution (SDB), diluted serially in PBS, and plated directly to SDEA plates, See FIG. 2.
(§4) We prepared and qualified these per EPA protocol (US Environmental Protection Agency, 2017). • Soil Stocks: We prepared soil stocks with yeast extract powder (Ref RM027) purchased from Himedia, BSA (A2153) purchased from Sigma Life Science, and gastric mucin (cat #HY-B2196/CS-7626) purchased from Mod Chem Express per SOP MB-35-00 (US Environmental Protection Agency, 2017). • Cell Harvesting: We removed cells from the growth culture media using a Micro-Centrifuge obtained from Changzhou Jintan Sanhe Instrument Co., LTD. (Model TGI6-W) at 10,000×g for 10 min in screw-top-cap vials purchased from Heathrow Scientific (Item HS 100600). The optical density of the inoculate was defined at 15-19 OD600 in PBS with the Ultrospec 10 Cell Density Meter from BioChrom (Holliston, MA, USA) prior to dilution in the soil load. Samples were diluted 1:10 in PBS to obtain absorbance readings between 1.5 and 1.9. • Membrane Filtration: Treated yeasts were collected using a combination of the Rocker (Cat #200300-01) and 47 mm PES membranes with a 0.45 micron pore size obtained from Sterlitech (Catalog #PE54547100).

[8] = tested on: Vero 76 cells
[9] = tested on: methacillin resistant Staphylococcus aureus, vancomycin resistant enterococcus, pseudomonas, aspergillus, Candida albicans, Helicobacter pylori; conditions: studies by a third party; cited from earlier work
[10] = tested on: Candida albicans (ATCC 10231); assay: EPA protocol MB-35-00 hard surface carrier disinfection test; conditions: 0.42 M, 1 min
Procedure: as §1, §2, §3, §4

[11] = tested on: SARS-COV-2; assay: Virucidal assay, 2 minutes contact, end-point titer (CCID50) on Vero 76 cells
[12] = Concentration 11.3% of 12% ICLS, 2 minutes, 22±2° C., Table 4
[13] = Concentration 22.5% of 12% ICLS, 2 minutes, 22±2° C., Table 4
[14] = Concentration 45% of 12% ICLS, 2 minutes, 22±2° C., Table 4
[15] = Concentration 90% of 12% ICLS, 2 minutes, 22±2° C., Table 4
[16] = second experiment, Concentration 0.25% of 12% ICLS, 2 minutes, Table 5
[17] = second experiment, Concentration 0.5% of 12% ICLS, 2 minutes, Table 5
[18] = second experiment, Concentration 1% of 12% ICLS, 2 minutes, Table 5
[19] = second experiment, Concentration 11.3% of 12% ICLS, 2 minutes, 22±2° C., Table 5
[20] = second experiment, LA 1% (4.4 mM), 2 minutes, Tables 8 and 9

Substance: potassium salt of isomerized linoleic acid [ILCS]
- kill ([1]; 2-minute immersion, carriers inoculated with 6-8 log yeast): 100%
- colonies recovered from treated carries ([1]; undiluted ILPS, 10 minutes, seven carries, untreated 7.1-7.2 log10 CFU): no colonies
- COVID-19 Complications ([2]; Cases 1): none
- Total Duration of Symptoms ([2]; Cases 1, 0 days of symptoms before treatment): 0 days
- COVID-19 Complications ([2]; Cases 2): none
- Total Duration of Symptoms ([2]; Cases 2, 2 days of symptoms before treatment): 7 days
- Total Duration of Symptoms ([2]; Cases 3, 4 days of symptoms before treatment): 16 days
- Total Duration of Symptoms ([2]; Cases 4, 9 days of symptoms before treatment): 23 days
- COVID-19 Complications ([2]; Close Contacts 1): none
- Total Duration of Symptoms ([2]; Close Contacts 1, asymptomatic at treatment): 0 days
- COVID-19 Complications ([2]; Close Contacts 2): none
- Total Duration of Symptoms ([2]; Close Contacts 2, asymptomatic at treatment): 0 days
- COVID-19 Complications ([2]; Probable Cases 1): Steroid for asthma
- Total Duration of Symptoms ([2]; Probable Cases 1, 1 day of symptoms before treatment): 6 days
- COVID-19 Complications ([2]; Probable Cases 2): none
- Total Duration of Symptoms ([2]; Probable Cases 2, 3 days of symptoms before treatment): 10 days
- side effects to nebulized LA ([2]; eight patients of Example 7, nebulized 0.56 ml 11 mM LA, listed as LA): no side effects; also recorded: None of the eight patients reported any side effects
- oxygen saturation ([2]; husband, treatment Day 1 (94% before treatment)): 98%
- oxygen saturation ([2]; husband, treatment Day 2): 97%
- oxygen saturation ([2]; husband, treatment Day 3): 95%
- oxygen saturation ([2]; husband, treatment Day 4): 95-98%
- oxygen saturation ([2]; husband, treatment Day 5): 97%
- oxygen saturation ([2]; husband, treatment Day 6): 97%
- oxygen saturation ([2]; husband, treatment Day 7): 98%
- prevention of symptoms in close contacts ([2]; two asymptomatic close contacts of COVID-19 cases): completely effective
- side effects to nebulized LA ([2]; two patients of Example 6, 0.56 ml 11 mM every 4 hours for 7 days): no side effects
- oxygen saturation ([2]; wife, Day 2, Albuterol and Methylprednisolone started, LA inadvertently discontinued): 94%
- oxygen saturation ([2]; wife, Day 3, nebulized LA discontinued, on Albuterol): 98%
- oxygen saturation ([2]; wife, Day 4, nebulized LA started again): 95%
- oxygen saturation ([2]; wife, treatment Day 1 (96% before treatment)): 95%
- oxygen saturation ([2]; wife, treatment Day 5): 96%
- oxygen saturation ([2]; wife, treatment Day 6): 98%
- oxygen saturation ([2]; wife, treatment Day 7): 98%
- reduction in microbial growth [3]: 8-10 log reduction
- symptoms associated with viral illnesses [4]: reduced symptoms
- acne [5]: clinical remission of acne
- solubility [6]: remain soluble
- log kill rate ([7]; 0.42 M, 1 min): greater than 5 log
- log kill rates ([7]; 10-min test, the longest time allowed per the SOP): greater than 5 log
- toxicity to cells in titer plates ([8]; 11.3% sample, 1/10 dilution): Full toxicity
- toxicity to cells in titer plates ([8]; 22.5%-90% samples, 1/10 and 1/100 dilutions): Full toxicity
- growth of pathogens [9]: suppresses the growth
- log kill rate [10]: greater than 5 log
- reduction of virus vs virus controls [11]: > 99%
- reduction of virus vs virus controls ([11]; 1% (4.4 mM), 2 minutes, second experiment, titer reduced to 1.7 log CCID50 per 0.1 mL): 99%
- reduction of virus vs virus controls ([11]; 22.5%-90%, 2 minutes, first experiment, below limit of detection 2.7 log CCID50 per 0.1 mL): > 80%
- LRV (log reduction value) [11, 12]: >1.8
- Virus Titer [11, 12]: <1.7 Log10 CCID50 of virus per 0.1 mL
- LRV (log reduction value) [11, 13]: >0.8
- Virus Titer [11, 13]: <2.7 Log10 CCID50 of virus per 0.1 mL
- LRV (log reduction value) [11, 14]: >0.8
- Virus Titer [11, 14]: <2.7 Log10 CCID50 of virus per 0.1 mL
- LRV (log reduction value) [11, 15]: >0.8
- Virus Titer [11, 15]: <2.7 Log10 CCID50 of virus per 0.1 mL
- kill-rate of COVID-19 (SARS-Cov-2) in vitro ([11]; LA 4.4-50.2 mM, 2 minutes): 99%
- LRV (log reduction value) [11, 16]: 0.4
- Virus Titer [11, 16]: 3.3 Log10 CCID50 of virus per 0.1 mL
- LRV (log reduction value) [11, 17]: 0.2
- Virus Titer [11, 17]: 3.5 Log10 CCID50 of virus per 0.1 mL
- LRV (log reduction value) [11, 18]: 2.0
- Virus Titer [11, 18]: 1.7 Log10 CCID50 of virus per 0.1 mL
- LRV (log reduction value) [11, 19]: >2.0
- Virus Titer [11, 19]: <1.7 Log10 CCID50 of virus per 0.1 mL
- LRV (log reduction value) [11, 20]: >2.0
- Virus Titer [11, 20]: <1.7 Log10 CCID50of virus per 0.1 mL

— patent US12611380B2, “Solution and method for reducing the virulence of viruses, bacteria, yeasts, or fungus” (priority 2020, dated 2026)
